Results taken from patent publication US20250321223A1, “ENGINEERING CHEMICALLY INDUCIBLE SPLIT PROTEIN ACTUATORS (CISPA)” (KEMIJSKI INSTITUT, priority 2021, published 2025).

Legend:
[1] = biological target: split ligand binding domain of estrogen receptor beta (ERβ) (Homo sapiens, UniProt Q92731); settings: HEK293T cells, increasing ligand concentration, compared to cells not stimulated; FIG. 2C
Text: (§1) The fusion constructs were simultaneously expressed in the HEK293T cell line. […] Following this dimerization, the split reporter fragments (nLuc and cLuc) are brought into the proximity, leading to their reconstitution and measurable output signal (emitted light). The plasmids encoding for the CISPA sensors based on split LBDs were transiently transfected into the HEK293T cell line. A constitutively expressed Renilla luciferase (phRL-TK http://www.promega.com/vectors/prltk.txf) was used as control of transfection efficiency.
(§2) Methods and techniques for cell line cultivation are well-known to experts in the field and are explained here only indicatively, with the intention of clarifying the example. Cell cultures of HEK293T cells were grown at 37° C. and 5% CO2. For cultivation, DMEM medium with 10% FBS, containing all the necessary nutrients and growth factors was used. When the cell population reached a sufficient density, the cells were transferred to a new flask and/or diluted. For use in experiments, the number of cells was determined by the Countess automated cell counter (Invitrogen). A 96-well microtiter plate, suitable for growing cell cultures, was inoculated with 2*10^4 cells per well 24 hours prior to transfection.

[2] = tested on: split ligand binding domain of glucocorticoid receptor (GR2); assay: CISPA sensor, split LBD of GR2 fused to split firefly luciferase, in HEK293T cells; format: cell-based, human; settings: increasing ligand concentration, compared to cells not stimulated, FIG. 2B
Text: as §1, §2

[3] = tested on: split dihydrofolate reductase (DHFR); assay: CISPA sensor, split DHFR fused to split firefly luciferase, in HEK293T cells; format: cell-based, human; settings: increasing ligand concentration, compared to cells not stimulated, FIG. 3B
Description: as §2
A constitutively expressed Renilla luciferase (phRL-TK http://www.promega.com/vectors/prltk.txf) was used as control of transfection efficiency.

Sequence of split ligand binding domain of estrogen receptor beta (ERβ) (Q92731 with tags, fused parts or gaps): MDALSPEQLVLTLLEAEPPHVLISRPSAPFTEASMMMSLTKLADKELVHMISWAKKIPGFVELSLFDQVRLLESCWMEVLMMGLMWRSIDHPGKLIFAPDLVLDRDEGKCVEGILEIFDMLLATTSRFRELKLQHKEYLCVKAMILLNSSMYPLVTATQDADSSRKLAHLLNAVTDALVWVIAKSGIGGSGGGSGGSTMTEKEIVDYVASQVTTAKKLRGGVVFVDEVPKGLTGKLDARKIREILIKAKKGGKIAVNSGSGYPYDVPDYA
Sequence of split ligand binding domain of estrogen receptor beta (ERβ) (Q92731 with tags, fused parts or gaps): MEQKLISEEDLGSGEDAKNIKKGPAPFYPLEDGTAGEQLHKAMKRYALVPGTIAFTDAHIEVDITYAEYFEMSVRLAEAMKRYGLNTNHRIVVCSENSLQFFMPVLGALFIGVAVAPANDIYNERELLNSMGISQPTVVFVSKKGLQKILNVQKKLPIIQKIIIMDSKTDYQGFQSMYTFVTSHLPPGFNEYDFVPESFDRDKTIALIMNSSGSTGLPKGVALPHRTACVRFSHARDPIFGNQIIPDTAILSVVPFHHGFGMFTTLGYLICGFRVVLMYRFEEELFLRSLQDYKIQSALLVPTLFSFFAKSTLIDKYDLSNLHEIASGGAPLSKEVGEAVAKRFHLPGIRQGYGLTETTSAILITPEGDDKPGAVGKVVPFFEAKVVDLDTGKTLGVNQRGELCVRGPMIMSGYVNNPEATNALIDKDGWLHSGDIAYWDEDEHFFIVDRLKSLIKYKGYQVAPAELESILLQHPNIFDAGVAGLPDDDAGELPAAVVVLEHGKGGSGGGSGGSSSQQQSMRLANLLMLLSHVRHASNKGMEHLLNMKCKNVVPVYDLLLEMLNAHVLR

Row | Molecule | firefly luciferase activity (dimerization of split DHFR CISPA sensor) [3] | further results
1 | 4-hydroxytamoxifen | – | firefly luciferase activity (dimerization of split ERβ CISPA sensor) [1]: concentration-dependent manner
2 | C[C@]12CCC(=O)C=C1CC[C@@H]1[C@@H]2[C@@H](O)C[C@@]2(C)[C@H]1CC[C@]2(O)C(=O)CO [cortisol] | – | firefly luciferase activity (dimerization of split GR2 CISPA sensor) [2]: an increase in the firefly luciferase activity is observed
3 | CN(Cc1cnc2nc(N)nc(N)c2n1)c1ccc(C(=O)N[C@@H](CCC(=O)O)C(=O)O)cc1 [methotrexate] | an increase in firefly luciferase activity is observed | –
4 | C#CCC(Cc1cnc2nc(N)nc(N)c2n1)c1ccc(C(=O)N[C@@H](CCC(=O)O)C(=O)O)cc1 (stereo partly shown) [pralatrexate] | an increase in firefly luciferase activity is observed | –
